Source: patent US20100221445A1, “O-DESMETHYLVENLAFAXINE AND BAZEDOXIFENE COMBINATION PRODUCT AND USES THEREOF” (Wyeth LLC, priority 2005, published 2010)

Key:
[1] = Dissolution of bilayer tablets in 0.2% Tween 80/10 mM Acetic acid at 37° C.; assay type: physicochemical
[2] = tested on: reuptake of serotonin and norepinephrine; conditions: cited from earlier work
[3] = Storage stability of DVS/Bazedoxifene bilayered tablets (strength, % recovery); conditions: 25/60 and 40/75 for 3 months
Protocol: 80 DVS/Bazedoxifene bilayered tablets (150 mg/40 mg respectively) were stored at 25° C./60 relative humidity (RH) and 40° C./75 RH in a 50-mL high density polyethylene (HDPE) closed container for 2 weeks, 1 month and 3 months. The strengths of each active constituents and the dissolution rate in 0.2% Tween 80/10 mM Acetic acid at 37° C. were monitored.

[4] = tested on: bone loss and cholesterol; conditions: ovariectomized rat model of osteopenia; cited from earlier work
[5] = tested on: MCF-7 cell line (human breast cancer cell line); conditions: MCF-7 human breast cancer cell line; cited from earlier work
uterine response = conditions: preclinical models of uterine stimulation; cited from earlier work

With `CN(C)CC(c1ccc(O)cc1)C1(O)CCCCC1` (stereo not shown) [DVS] the “Release (in words)” value ([1]; first 2 hours) was “slow release” and the “Release (in words)” value ([1]; in 24 hours) was “complete release”.

For `CN(C)CC(c1ccc(O)cc1)C1(O)CCCCC1` (stereo not shown) [ODV, 1-[2-(dimethylamino)-1-(4-phenol)ethyl]-cyclohexanol], the “Blockade of reuptake of serotonin and norepinephrine” value [2] is given as “selectively blocks” and the “Stability on storage (in words)” value [3] is given as “stable”.

In the case of `Cc1c(-c2ccc(O)cc2)n(Cc2ccc(OCCN3CCCCCC3)cc2)c2ccc(O)cc12` [BZA, 1-[4-(2-azepan-1-yl-ethoxy)-benzyl]-2-(4-hydroxy-phenyl)-3-methyl-1H-indol-5-ol acetic acid], the “Effect in preventing bone loss and reducing cholesterol” value [4] is listed as “estrogen agonist-like effect”, the “Behaviour in MCF-7 cell line” value [5] is listed as “estrogen antagonist” and the “Stimulation of uterine response” value (uterine response) is listed as “little or no stimulation”.
